Laboratory results reported in patent EP0380554B1, “VASOACTIVE PEPTIDES” (Ferring AB, priority 1987, dated 1993).

Test system: anaesthetised Sprague Dawley rats
Test: Blood pressure test (4-point test against the standard AVP)
Type: in vivo
Conditions: result in words; for potency in respect of blood pressure increase: maximal blood pressure increase after intravenous injections, rats previously treated with dibenamine, related to standard AVP, compared with known derivatives 2 and 3; for specificity (ratio of potency blood pressure/potency antidiuresis, BP/AD): ratio of blood pressure potency to antidiuretic potency, compared with known compounds 1, 2 and 3; for length of the effect (index of persistence, I.P.): duration of the blood pressure effect in relation to standard AVP, compared with known substances 1, 2 and 3
From the text: Vasotocin derivatives according to the invention have been tested for potency of both blood pressure and antidiuretic activity in a so-called 4-point test, i.e. the activity of the test substances has been related to a standard preparation (AVP = arginine-vasopressin), and the effects of two dose levels for each substance have been analysed. In addition, two known pressor-specific analogs (VT derivatives) have been tested for a comparison, namely 1-mpa-2-Phe-8-Orn-VT (mpa = 3-mercaptopropionyl) (Huguenin, R.L., Boissonnas, R.A., 1966. Helv. Chim. Acta, 49, 711), and 2-Phe-8-Orn-VT (SE-332993, Sandoz).
Blood pressure tests were carried out on anaesthetised Sprague Dawley rats (about 250 g), previously treated with dibenamine (Dekanski, J., 1952. Br. J. Pharmacol. 7, 567). Maximal blood pressure increase after intravenous injections of peptide was used as a measure of the effect, expressed as intensity.
In addition to potency determination based on effect intensity, a measure of the length of the effect has been stated (index of persistence (I.P.), Pli ? ka, V., 1966. Arzheim. Forsch. 16, 886). This dimensionless factor is a measure of the effect duration of the respective analog in relation to the standard AVP.
In these two tests, a comparison was made between the effects of the respective derivative and the effect of a standard preparation, AVP, and potency was determined with the aid of a 4-point test and is indicated in international units per milligram (IU/mg) (Stürmer, E., i: Handbook of Experimental Pharmacology, 1966, Vol 23, pp 130-189).

Row | Substance | potency in respect of blood pressure increase | specificity (ratio of potency blood pressure/potency antidiuresis, BP/AD) | length of the effect (index of persistence, I.P.)
1 | 1-Hmp-2-Phe-8-Dab-VT [compound 5] | very high potency | equivalent or higher specificity | 
2 | 1-Hmp-2-Phe-8-Orn(Ala)-VT [compound 6] | surprisingly high blood pressure potency | adequate specificity | considerably prolonged effect
3 | 1-Hmp-2-Phe-8-Orn-VT [compound 4] | very high potency | equivalent or higher specificity | 
4 | Gly^o-1-Hmp-2-Phe-8-Orn-VT [compound 7] | surprisingly high blood pressure potency | adequate specificity | considerably prolonged effect
